From patent US8614188B2, “Inhibiting collagen-induced platelet aggregation and activation with peptide variants” (University of Massachusetts, priority 2006, dated 2013)

Assays:
cells = assay: Toxicity of DMSO to cells; type: cell-based
Experimental: (§1) The CP and CP-A peptides were noted to be hydrophobic and insoluble in aqueous solutions. A variety of solvents and carriers were tested to improve their solubility. Solvents and/or carriers that improve solubility of CP and CP-A included, but were not limited to, ethanol, dimethylsulphoxide (DMSO), dimethyl formamide (DMF), and trifluoracetic acid (TFA). When using DMSO as a solvent, the final concentration used in the platelet function experiments ranged from 0.063%-0.250%. DMSO concentrations greater than 1% were observed toxic to cells. Stock solutions of CP and CP-A were prepared in DMSO and used at a […] dilution.

[1] = Solubility of peptides in aqueous solutions and solvents; type: physicochemical; details: solubility improved by ethanol, DMSO, DMF, TFA
Experimental: as §1

platelets = assay: Collagen-induced platelet activation, whole blood flow cytometry (P-Selectin, PAC-1); type: cell-based, human; details: for concentration-dependent effect on collagen-induced platelet activation: 50, 100 or 200 μM
Experimental: Peripheral blood was drawn from healthy, nonsmoking adult volunteers (IRB-approved written informed consent) who had not received any platelet inhibitory drugs in the preceding 2 weeks. After discarding the first 2 mL, blood was drawn into a 3.2% sodium citrate Vacutainer® (Becton Dickinson, Franklin Lakes. N.J., USA).
Flow cytometric analysis may be used to evaluate platelet function, and/or the assessment of platelet activation. Michelson, A. D., “Evaluation of platelet function by flow cytometry” Pathophysiol. Haemost. Thromb. 35:67-82 (2006). In the absence of an added exogenous platelet agonist, whole blood flow cytometry can determine the activation state of circulating platelets, as judged by the binding of an activation-dependent monoclonal antibody. In addition to this assessment of platelet function in vivo, inclusion of an exogenous agonist in the assay enables analysis of the reactivity of circulating platelets in vitro. In the latter application, whole blood flow cytometry is a physiological assay of platelet function in that an agonist results in a specific functional response by the platelets: a change in the surface expression of a physiological receptor (or other antigen or bound ligand), as determined by a change in the binding of a monoclonal antibody.
Markers of platelet activation include activation-dependent changes in the glycoprotein IIb/IIIa complex and exposure of granule membrane proteins. The platelet glycoprotein IIb/IIIa complex is believed involved with biochemical events leading to activation, and may express an activation dependent epitope recognized by monoclonal antibody PAC-1. Shattil et al., “Changes in the platelet membrane glycoprotein IIb/IIIa complex during platelet activation” J. Biol. Chem. 260:11107-11114 (1985). P-Selectin (GMP-140, PADGEM, CD-62P) is now known to be a component of the alpha-granule membrane and is therefore exposed on the surface of the platelet upon activation, due to the fusing of the vesicle with the outer membrane. These two markers of platelet activation were used to study the effect of peptide on collagen-induced platelet activation using whole blood flow cytometry.
The final concentration of a peptide used in incubation (i.e., for example, the GPVI CP) was 100 μM. The following antibodies (and appropriately matched isotype control antibodies) were used for flow cytometry analysis: fluorescein isothiocyanate (FITC)-conjugated PAC-1 monoclonal antibody which recognizes the activated conformation of glycoprotein (GP) IIb/IIIa; phycoerythrin (PE)-conjugated anti-CD62P monoclonal antibody directed against P-Selectin; and PECy7-conjugated anti-CD41 monoclonal antibody which recognizes the α-subunit of the CD41/CD61 complex (GPIIb-IIIa) (BD-Pharmingen, San-Diego, Calif., USA; and/or DAKO, Carpinteria, Calif., USA).
Prior to flow cytometric experiments, PE-conjugated anti-CD62P and anti-CD41 antibodies were mixed at a ratio of 1:2.5 (volume/volume) and diluted at a ratio of 1:9 (volume/volume) with 10 mmol/L HEPES, 0.15 mol/L NaCl, pH 7.4, containing 1% bovine serum albumin (BSA) and 15 mmol/L sodium azide. Collagen was purchased from Chronolog Corp (Havertown, Pa., USA). The stock 1 mg/mL collagen solution was diluted at a ratio of 1:10 (volume/volume) with 10 mmol/L HEPES, 0.15 mol/L NaCl, pH 7.4. Stock solutions of GPVI core peptide in DMSO (or pure DMSO as a “vehicle” control) were diluted at a ratio of 1:10 (volume/volume) with 10 mmol/L HEPES, 0.15 mol/L NaCl, pH 7.4, immediately before the addition of blood samples.
Flow cytometric analysis: aliquots of citrated whole blood were incubated at 37° C. for 60 min with vehicle (DMSO; in a final concentrations of 0.063, 0.125 or 0.250%) or a preliminarily diluted GPVI core peptide in a final concentration of 100 μM. Then, the aliquoted samples were stimulated with 20 μg/mL collagen for 5 minutes at 37° C. in the presence of monoclonal antibody FITC-PAC-1. […]

| Molecule | DMSO concentration observed toxic to cells (cells) | solubility in aqueous solutions [1] | expression of the platelet activation markers as compared to vehicle control (platelets; 100 μM peptide, 20 μg/mL collagen) | collagen-mediated platelet activation, percentage of P-Selectin-positive platelets (platelets; 100 μM, FIG. 8A) | collagen-mediated platelet activation, P-Selectin mean fluorescence surface expression intensity (platelets; 100 μM, FIG. 8B) | collagen-mediated platelet activation, PAC-1 mean fluorescence surface expression intensity (platelets; 100 μM, FIG. 8C) | reduction in the expression of the platelet activation markers compared to vehicle control (platelets; 100 μM peptide, whole blood preincubated 60 min 37° C., 20 μg/mL collagen, % P-Selectin-positive platelets, P-Selectin and PAC-1 MFI) | concentration-dependent effect on collagen-induced platelet activation (platelets; % P-Selectin-positive platelets, P-Selectin and PAC-1 MFI, listed as GPVI core peptide) | concentration-dependent effect on collagen-induced platelet activation (platelets; % P-Selectin-positive platelets, P-Selectin and PAC-1 MFI, listed as GPVI-CP) | inhibition of platelet activation (platelets; Examples 4 and 5) |
| --- | --- | --- | --- | --- | --- | --- | --- | --- | --- | --- |
| C[S+](C)[O-] [DMSO, dimethylsulphoxide] | greater than 1% | – | – | – | – | – | – | – | – | – |
| H-GNLVAICLGAV-OH [CP-A, NH2-Gly-Asn-Leu-Val-Ala-Ile-Cys-Leu-Gly-Ala-Val-OH, reference compound] | – | insoluble | did not lead to any significant differences | absence of effect | absence of effect | absence of effect | – | – | – | – |
| H-GNLVRICLGAV-OH [Peptide 2, NH2-Gly-Asn-Leu-Val-Arg-Ile-Cys-Leu-Gly-Ala-Val-OH] | – | insoluble | – | – | – | – | 32%-59% | inhibited platelet activation in a concentration-dependent manner | concentration-dependent effect | 30-60% |
